The values below come from patent US8673904B2, “Epoxide inhibitors of cysteine proteases” (The Board of Trustees of the Leland Stanford Junior …, priority 2006, dated 2014).

The assay relates to cathepsin targets. Briefly: Cathepsin targets of the compounds (Table 4). Format: biochemical, rat. Conditions: cathepsin target(s) inhibited; General = all cathepsins. The method, then:
Also included in the table for comparison are known compounds JPMOEt and JPMOH (also known as JPM-565). See Meara and Rich, J. Med. Chem. 39:3357-3366, 1996; Bogyo et al, Chem. Biol. 7:27-38, 2000; and Joyce et al., Cancer Cell 5:443-453, 2004. The table also lists cathepsin targets and measured IC50 values for specific compounds. To determine these values, 1 mg/ml of rat liver lysate was incubated with a series of concentrations of the inhibitor for 20 minutes. Then, 1 ul of a radiolabled general cathepsin probe, DCG-04, was added to the solutions and incubated for 1 hour. After fixing and drying the gel, the residual enzyme activity was measured using ImageJ software. The measurements were then transferred to GraphPad Prism 4 to calculate the IC50 values.

Turning to `Cc1ccc(C[C@H](NC(=O)C2OC2C(=O)NCc2ccccc2)C(=O)N[C@@H](Cc2ccc(O)cc2)C(N)=O)cc1` (some centres unmarked) [Compound 2], the Target result is “Cat B”.
For the compound `CC(C)C[C@H](NC(=O)C1O[C@H]1C(=O)NCCCCCCO)C(=O)N[C@@H](Cc1ccc(O)cc1)C(N)=O` (some centres unmarked) [Compound 53], the Target result is “Cat B”.
For `Cc1ccc(C[C@H](NC(=O)C2OC2C(=O)NCC(N)=O)C(=O)N[C@@H](Cc2ccc(O)cc2)C(N)=O)cc1` (some centres unmarked) [Compound 15], the Target entry is recorded as “Cat B”.
Turning to `CC(C)C[C@H](NC(=O)C1OC1C(=O)NN1CCN(C)CC1)C(=O)N[C@@H](Cc1ccc(O)cc1)C(N)=O` (some centres unmarked) [Compound 30], the Target result is recorded as “Cat B”.
With `CCC[C@H](NC(=O)[C@H]1O[C@@H]1C(=O)O)C(=O)NCc1cccc2ccccc12` [Compound 114] the entry was “General”; with `Cc1ccc(C[C@H](NC(=O)C2OC2C(=O)NCCN2CCOCC2)C(=O)N[C@@H](Cc2ccc(O)cc2)C(N)=O)cc1` (some centres unmarked) [Compound 4], “Cat B”; with `Cc1ccc(C[C@H](NC(=O)C2OC2C(=O)NCC(C)C)C(=O)N[C@@H](Cc2ccc(O)cc2)C(N)=O)cc1` (some centres unmarked) [Compound 17], “Cat B”.
With `CC(C)CNC(=O)C1OC1C(=O)N[C@@H](CC(C)C)C(=O)N[C@@H](Cc1ccc(O)cc1)C(N)=O` (some centres unmarked) [Compound 57] the entry was “Cat B”.
`CC(C)C[C@H](NC(=O)C1OC1C(=O)NCC(N)=O)C(=O)N[C@@H](Cc1ccc(O)cc1)C(N)=O` (some centres unmarked) [Compound 34]: the Target entry is listed as “Cat B”.
`Cc1ccc(C[C@H](NC(=O)[C@H]2O[C@@H]2C(=O)NCCc2ccccn2)C(=O)N[C@@H](Cc2ccc(O)cc2)C(N)=O)cc1` [Compound 3]: the Target entry is given as “Cat B”.
The result for `CC(C)C[C@H](NC(=O)[C@H]1OC1C(=O)NCCN1CCCCC1)C(=O)N[C@@H](Cc1ccc(O)cc1)C(N)=O` (some centres unmarked) [Compound 28] reads “Cat B”; that for `Cc1ccc(C[C@H](NC(=O)[C@H]2O[C@@H]2C(=O)NCCc2ccc(O)cc2)C(=O)N[C@@H](Cc2ccc(O)cc2)C(N)=O)cc1` [Compound 6], “Cat B”; that for `CCOC(=O)C1OC1C(=O)N[C@@H](Cc1ccc(C)cc1)C(=O)NCc1cccc2ccccc12` (some centres unmarked) [Compound 119], “Cat Z”.
On to `CC(C)C[C@H](NC(=O)[C@@H]1O[C@H]1C(=O)NCc1ccccc1)C(=O)N[C@@H](Cc1ccc(O)cc1)C(N)=O` [Compound 42], for which the Target result is reported as “Cat B”.
The result for `CC(C)C[C@H](NC(=O)C1OC1C(=O)N[C@H](C)c1ccccc1)C(=O)N[C@@H](Cc1ccc(O)cc1)C(N)=O` (some centres unmarked) [Compound 50] reads “Cat B”; that for `Cc1ccc(C[C@H](NC(=O)[C@H]2O[C@@H]2C(=O)NCc2cccc3ccccc23)C(=O)N[C@@H](Cc2ccc(O)cc2)C(N)=O)cc1` [Compound 8], “Cat B”; that for `Cc1ccc(C[C@H](NC(=O)[C@H]2OC2C(=O)O)C(=O)N[C@@H](Cc2ccc(O)cc2)C(N)=O)cc1` (some centres unmarked) [Compound 19], “Cat B”.
Take `Cc1ccc(C[C@H](NC(=O)C2OC2C(=O)NCCCO)C(=O)N[C@@H](Cc2ccc(O)cc2)C(N)=O)cc1` (some centres unmarked) [Compound 12]: the Target entry is reported as “Cat B”.
In the case of `CC(C)C[C@H](NC(=O)C1OC1C(=O)NCCO)C(=O)N[C@@H](Cc1ccc(O)cc1)C(N)=O` (some centres unmarked) [Compound 38], the Target result is listed as “Cat B”.
Turning to `CC(C)C[C@H](NC(=O)C1O[C@H]1C(=O)NCCc1ccccn1)C(=O)N[C@@H](Cc1ccc(O)cc1)C(N)=O` (some centres unmarked) [Compound 43], the Target result is given as “Cat B”.
On to `CC(C)C[C@H](NC(=O)[C@H]1OC1C(=O)NCC(=O)O)C(=O)N[C@@H](Cc1ccc(O)cc1)C(N)=O` (some centres unmarked) [Compound 35], for which the Target result is given as “Cat B”.
For the compound `CCOC(=O)C1OC1C(=O)N(CC(=O)N[C@@H](Cc1ccc(O)cc1)C(N)=O)CC(C)C` (some centres unmarked) [Compound 103], the Target entry is given as “Cat B”.
Consider `Cc1ccc(C[C@H](NC(=O)C2OC2C(=O)NCCc2ccc(-c3ccccc3)cc2)C(=O)N[C@@H](Cc2ccc(O)cc2)C(N)=O)cc1` (some centres unmarked) [Compound 5], for which the Target entry was “Cat B”.
With `CCC[C@H](NC(=O)[C@@H]1OC1C(=O)OCC)C(=O)NCCc1ccccn1` (some centres unmarked) [Compound 124], the Target result was “General”.
On to `CCC[C@H](NC(=O)C1O[C@@H]1C(=O)OCC)C(=O)NCCc1ccccn1` (some centres unmarked) [Compound 123], for which the Target entry is recorded as “General”.
Consider `CCOC(=O)C1OC1C(=O)N[C@@H](Cc1ccc(C)cc1)C(=O)N[C@@H](Cc1ccc(O)cc1)C(N)=O` (some centres unmarked) [Compound 18], for which the Target result is “Cat B”.
`Cc1ccc(C[C@H](NC(=O)C2O[C@@H]2C(=O)NCC(=O)O)C(=O)NCc2cccc3ccccc23)cc1` (some centres unmarked) [Compound 121]: the Target entry is reported as “Cat Z”.
Take `CCOC(=O)C1O[C@H]1C(=O)N[C@@H](Cc1ccc(C)cc1)C(=O)NCCc1ccccn1` (some centres unmarked) [Compound 126]: the Target entry is “General”.
In the case of `CC(C)C[C@H](NC(=O)C1OC1C(=O)NCCN1CCOCC1)C(=O)N[C@@H](Cc1ccc(O)cc1)C(N)=O` (some centres unmarked) [Compound 23], the Target entry was “Cat B”.
For `CC(C)C[C@H](NC(=O)C1OC1C(=O)NCCc1ccccn1)C(=O)N[C@@H](Cc1ccc(O)cc1)C(N)=O` (some centres unmarked) [Compound 22], the Target result is reported as “Cat B”.
With `Cc1ccc(C[C@H](NC(=O)C2OC2C(=O)NCCN2CCCCC2)C(=O)N[C@@H](Cc2ccc(O)cc2)C(N)=O)cc1` (some centres unmarked) [Compound 9], the Target entry was “Cat B”.
The result for `CC(C)C[C@H](NC(=O)C1OC1C(=O)NCCc1ccc(-c2ccccc2)cc1)C(=O)N[C@@H](Cc1ccc(O)cc1)C(N)=O` (some centres unmarked) [Compound 45] reads “Cat B”.
With `CC(C)C[C@H](NC(=O)[C@@H]1O[C@H]1C(=O)NCc1cccc2ccccc12)C(=O)N[C@@H](Cc1ccc(O)cc1)C(N)=O` [Compound 48] the entry was “Cat B”.
The result for `CCC[C@H](NC(=O)C1O[C@@H]1C(=O)NCCc1ccc(-c2ccccc2)cc1)C(=O)NCCc1ccccn1` (some centres unmarked) [Compound 106] reads “Cat B”.
For the compound `CC(=O)NCCNC(=O)C1O[C@@H]1C(=O)N[C@@H](CC(C)C)C(=O)N[C@@H](Cc1ccc(O)cc1)C(N)=O` (some centres unmarked) [Compound 20], the Target entry is reported as “Cat B”.
Turning to `CCOC(=O)C1OC1C(=O)N[C@@H](CC(C)C)C(=O)N[C@@H](Cc1ccc(O)cc1)C(N)=O` (some centres unmarked) [Compound 59], the Target entry was “Cat B”.
Consider `CC(=O)NCCNC(=O)C1OC1C(=O)N[C@@H](CC(C)C)C(=O)N[C@@H](Cc1ccc(O)cc1)C(N)=O` (some centres unmarked) [Compound 41], for which the Target entry is “Cat B”.
Turning to `Cc1ccc(C[C@H](NC(=O)C2OC2C(=O)NCCCCCCO)C(=O)N[C@@H](Cc2ccc(O)cc2)C(N)=O)cc1` (some centres unmarked) [Compound 13], the Target result is given as “Cat B”.
For `CCC[C@H](NC(=O)C1O[C@@H]1C(=O)NCCc1ccc(O)cc1)C(=O)NCCc1ccccn1` (some centres unmarked) [Compound 120], the Target result was “Cat B”.
With `Cc1ccc(C[C@H](NC(=O)C2O[C@@H]2C(=O)NN2CCN(C)CC2)C(=O)N[C@@H](Cc2ccc(O)cc2)C(N)=O)cc1` (some centres unmarked) [Compound 11], the Target result is given as “Cat B”.
With `CC(C)C[C@H](NC(=O)C1OC1C(=O)N[C@@H](C)c1ccccc1)C(=O)N[C@@H](Cc1ccc(O)cc1)C(N)=O` (some centres unmarked) [Compound 37] the entry was “Cat B”.
`Cc1ccc(C[C@H](NC(=O)[C@H]2OC2C(=O)NCCN2CCCC2)C(=O)N[C@@H](Cc2ccc(O)cc2)C(N)=O)cc1` (some centres unmarked) [Compound 7]: the Target entry was “Cat B”.
The result for `CCNC(=O)C1OC1C(=O)N[C@@H](Cc1ccc(C)cc1)C(=O)N[C@@H](Cc1ccc(O)cc1)C(N)=O` (some centres unmarked) [Compound 14] reads “Cat B”; that for `CC(=O)NCCNC(=O)[C@H]1O[C@@H]1C(=O)N[C@@H](Cc1ccc(C)cc1)C(=O)N[C@@H](Cc1ccc(O)cc1)C(N)=O` [Compound 1], “Cat B”.
For the compound `CCC[C@H](NC(=O)[C@H]1O[C@@H]1C(=O)NCCc1ccc(O)cc1)C(=O)NCc1cccc2ccccc12` [Compound 111], the Target result is reported as “Cat Z”.
On to `CCC[C@H](NC(=O)[C@H]1O[C@@H]1C(=O)OCC)C(=O)NCc1cccc2ccccc12` [Compound 105], for which the Target result is reported as “General”.
With `CCNC(=O)C1OC1C(=O)N[C@@H](CC(C)C)C(=O)N[C@@H](Cc1ccc(O)cc1)C(N)=O` (some centres unmarked) [Compound 33] the entry was “Cat B”; with `CCOC(=O)[C@H]1O[C@@H]1C(=O)N[C@@H](Cc1ccc(C)cc1)C(=O)NCc1cccc2ccccc12` [Compound 122], “Cat Z”; with `CCC[C@H](NC(=O)[C@@H]1O[C@H]1C(=O)O)C(=O)NCc1cccc2ccccc12` [Compound 115], “Cat Z”.
The result for `CC(C)C[C@H](NC(=O)[C@H]1O[C@@H]1C(=O)NCc1cccc2ccccc12)C(=O)N[C@@H](Cc1ccc(O)cc1)C(N)=O` [Compound 27] reads “Cat B”; that for `CC(C)C[C@H](NC(=O)C1OC1C(=O)NCCCCCCO)C(=O)N[C@@H](Cc1ccc(O)cc1)C(N)=O` (some centres unmarked) [Compound 32], “Cat B”.
As for `CC(C)CNC(=O)C1OC1C(=O)N[C@@H](CC(C)C)C(=O)N[C@@H](Cc1ccc(O)cc1)C(N)=O` (some centres unmarked) [Compound 36], the Target result is reported as “Cat B”.
On to `CC(C)C[C@H](NC(=O)[C@H]1OC1C(=O)NCCN1CCCC1)C(=O)N[C@@H](Cc1ccc(O)cc1)C(N)=O` (some centres unmarked) [Compound 26], for which the Target entry is “Cat B”.
As to `Cc1ccc(C[C@H](NC(=O)C2OC2C(=O)N[C@H](C)c2ccccc2)C(=O)N[C@@H](Cc2ccc(O)cc2)C(N)=O)cc1` (some centres unmarked) [Compound 10], the Target result is “Cat B”.
For the compound `CC(C)C[C@H](NC(=O)C1OC1C(=O)N[C@@H](C)c1ccccc1)C(=O)N[C@@H](Cc1ccc(O)cc1)C(N)=O` (some centres unmarked) [Compound 58], the Target entry is “Cat B”.
In the case of `CC(C)C[C@H](NC(=O)[C@H]1OC1C(=O)N[C@H](C)c1ccccc1)C(=O)N[C@@H](Cc1ccc(O)cc1)C(N)=O` (some centres unmarked) [Compound 29], the Target entry is recorded as “Cat B”.
